Data on 7 compounds can be found in the supplement of paper PMC6461962.

A value given as a limit tells only on which side of the number the result lay.

For experiment [1], the system named is Pseudomonas fluorescens FW300-N2E2. The method, boiled down: (§1)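 Cells were washed and added to 384-well plates at a final OD600 of 0.02 in 80 µL, with serial dilutions of inorganic ion salts or equimolar nitrilotriacetic acid complexes. Aerobic plates were shaken at 700 rpm at 30 °C, while anaerobic plates were not shaken, and OD600 was read at 24 h, or at 48 h for R2A strain comparisons. Readings were scaled between water controls and growth-blocking antibiotic controls, and wells with precipitate were excluded. The IC50 was obtained by fitting curves from at least two biological replicates with the drc R package.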

The subject of experiment [2] is Rhodanobacter sp. FW104-10B01. The method in brief:
as §1

The mark [3] stands for this setting: medium / electron acceptor: N2E2 Glucose/aerobic.
Where [4] appears, read: medium / electron acceptor: N2E2 Glucose/aerobic 0.25xMinerals.
[5] abbreviates: medium / electron acceptor: N2E2 Glucose/aerobic (2).
Setting [6] is: medium / electron acceptor: N2E2 KB/aerobic.
Where [7] appears, read: medium / electron acceptor: N2E2 LB/aerobic.
Where [8] appears, read: medium / electron acceptor: N2E2 LB/aerobic (2).
[9] abbreviates: medium / electron acceptor: N2E2 LB/nitrate.
Setting [10] is: medium / electron acceptor: N2E2 Lactate/aerobic.
Where [11] appears, read: medium / electron acceptor: N2E2 R2A/aerobic.
Setting [12] is: medium / electron acceptor: 10B01 R2A/aerobic.
The mark [13] stands for this setting: medium / electron acceptor: 10B01 R2A/nitrate.

Regarding `O=S(O)(O)=S` [Sodium thiosulfate], the IC50 growth inhibition in experiment [1] (setting [3]) was 318 mM; in experiment [1] (setting [4]) it was more than 500 mM; in experiment [1] (setting [5]), 386 mM; in experiment [1] (setting [6]), 319 mM; in experiment [1] (setting [7]) it was 363 mM; in experiment [1] (setting [8]) it was 360 mM. Moreover, the IC50 growth inhibition in experiment [1] (setting [9]) is 185 mM; in experiment [1] (setting [10]), 355 mM; in experiment [1] (setting [11]), 360 mM; in experiment [2] (setting [12]) it was more than 500 mM; in experiment [2] (setting [13]), 57.6 mM.
On to `O.O.[Cl][Cu][Cl]` [copper (II) chloride dihydrate], for which the IC50 growth inhibition is 0.0767 mM in experiment [1] (setting [3]); 0.0767 mM in experiment [1] (setting [4]); 0.0767 mM in experiment [1] (setting [5]); more than 5 mM in experiment [1] (setting [6]); more than 5 mM in experiment [1] (setting [7]); more than 5 mM in experiment [1] (setting [8]). In addition, the IC50 growth inhibition in experiment [1] (setting [9]) is more than 5 mM; in experiment [1] (setting [10]), 0.0767 mM; in experiment [1] (setting [11]), 0.525 mM; in experiment [2] (setting [12]), more than 5 mM; in experiment [2] (setting [13]) it was more than 5 mM.
Consider `CC(=O)[O-].[Tl+]` [Thallium(I) acetate], for which the IC50 growth inhibition in experiment [1] (setting [3]), in experiment [1] (setting [4]), in experiment [1] (setting [5]), in experiment [1] (setting [6]), in experiment [1] (setting [7]) and in experiment [1] (setting [8]) was less than 0.00244 mM each time. Also, the IC50 growth inhibition in experiment [1] (setting [9]) was less than 0.00244 mM; in experiment [1] (setting [10]), less than 0.00244 mM; in experiment [1] (setting [11]), less than 0.00244 mM; in experiment [2] (setting [12]) it was more than 5 mM; in experiment [2] (setting [13]), 2.95 mM.
Consider `O.O=[Te]([O-])[O-].[K+].[K+]` [Potassium tellurite hydrate], for which the IC50 growth inhibition in experiment [1] (setting [3]), in experiment [1] (setting [4]), in experiment [1] (setting [5]), in experiment [1] (setting [6]), in experiment [1] (setting [7]) and in experiment [1] (setting [8]) was less than 0.00244 mM throughout. The IC50 growth inhibition in experiment [1] (setting [9]) is 0.01 mM; in experiment [1] (setting [10]) it was less than 0.00244 mM; in experiment [1] (setting [11]), less than 0.00244 mM; in experiment [2] (setting [12]), 0.01 mM; in experiment [2] (setting [13]), 0.01 mM.
`O.O=[Te](=O)([O-])[O-].[K+].[K+]` [potassium tellurate hydrate]: the IC50 growth inhibition was more than 0.5 mM in experiment [1] (setting [3]); 0.0753 mM in experiment [1] (setting [4]); 0.444 mM in experiment [1] (setting [5]); more than 0.5 mM in experiment [1] (setting [6]); more than 0.5 mM in experiment [1] (setting [7]); 0.377 mM in experiment [1] (setting [8]). Further, the IC50 growth inhibition in experiment [1] (setting [9]) is 0.0845 mM; in experiment [1] (setting [10]), 0.354 mM; in experiment [1] (setting [11]), more than 0.5 mM; in experiment [2] (setting [12]), more than 0.5 mM; in experiment [2] (setting [13]) it was more than 0.5 mM.
Regarding `Cl.N` [Ammonium chloride], the IC50 growth inhibition amounted to 354 mM in experiment [1] (setting [3]); 347 mM in experiment [1] (setting [4]); 330 mM in experiment [1] (setting [5]); 333 mM in experiment [1] (setting [6]); 372 mM in experiment [1] (setting [7]); 422 mM in experiment [1] (setting [8]). Moreover, the IC50 growth inhibition in experiment [1] (setting [9]) was 199 mM; in experiment [1] (setting [10]), 355 mM; in experiment [1] (setting [11]), more than 500 mM; in experiment [2] (setting [12]) it was more than 500 mM; in experiment [2] (setting [13]), more than 500 mM.
For `O=P([O-])(O)O.[Na+]` [Sodium phosphate monobasic monohydrate], the IC50 growth inhibition was 50.2 mM in experiment [1] (setting [3]); more than 500 mM in experiment [1] (setting [4]); 73.8 mM in experiment [1] (setting [5]); 308 mM in experiment [1] (setting [6]); 307 mM in experiment [1] (setting [7]); 354 mM in experiment [1] (setting [8]). In addition, the IC50 growth inhibition in experiment [1] (setting [9]) is 2.25 mM; in experiment [1] (setting [10]) it was 30.3 mM; in experiment [1] (setting [11]), 15.7 mM; in experiment [2] (setting [12]) it was 354 mM; in experiment [2] (setting [13]), 128 mM.
